From ChEMBL document CHEMBL1156061, “Design and synthesis of substituted nicotinamides as inhibitors of soluble epoxide hydrolase” (Bioorg Med Chem Lett, 2009)

What was measured:
[1] = Metabolic stability in human liver microsomes assessed as half life; format: ADME, Microsome
[2] = biological target: T1, Bifunctional epoxide hydrolase 2 (Homo sapiens, UniProt P34913); test: Inhibition of human soluble EH
T1 sequence (P34913 whole entry): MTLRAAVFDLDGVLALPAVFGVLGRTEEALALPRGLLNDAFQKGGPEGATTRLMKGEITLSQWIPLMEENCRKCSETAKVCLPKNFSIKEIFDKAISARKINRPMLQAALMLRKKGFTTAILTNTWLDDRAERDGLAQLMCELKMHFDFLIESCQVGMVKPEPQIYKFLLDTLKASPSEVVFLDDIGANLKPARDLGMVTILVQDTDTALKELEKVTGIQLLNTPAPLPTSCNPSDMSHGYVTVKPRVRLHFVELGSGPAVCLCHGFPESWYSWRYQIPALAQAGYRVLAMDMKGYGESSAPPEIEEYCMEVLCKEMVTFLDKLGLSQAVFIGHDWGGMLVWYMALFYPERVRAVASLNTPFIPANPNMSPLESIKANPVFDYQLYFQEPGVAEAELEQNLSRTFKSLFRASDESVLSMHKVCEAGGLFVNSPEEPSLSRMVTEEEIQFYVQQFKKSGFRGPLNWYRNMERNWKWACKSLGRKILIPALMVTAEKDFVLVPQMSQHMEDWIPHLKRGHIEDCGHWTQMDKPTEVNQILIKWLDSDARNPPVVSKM

[3] = biological target: T2, Bifunctional epoxide hydrolase 2 (Rattus norvegicus, UniProt P80299); test: Inhibition of rat sEH
T2 sequence (P80299 whole entry): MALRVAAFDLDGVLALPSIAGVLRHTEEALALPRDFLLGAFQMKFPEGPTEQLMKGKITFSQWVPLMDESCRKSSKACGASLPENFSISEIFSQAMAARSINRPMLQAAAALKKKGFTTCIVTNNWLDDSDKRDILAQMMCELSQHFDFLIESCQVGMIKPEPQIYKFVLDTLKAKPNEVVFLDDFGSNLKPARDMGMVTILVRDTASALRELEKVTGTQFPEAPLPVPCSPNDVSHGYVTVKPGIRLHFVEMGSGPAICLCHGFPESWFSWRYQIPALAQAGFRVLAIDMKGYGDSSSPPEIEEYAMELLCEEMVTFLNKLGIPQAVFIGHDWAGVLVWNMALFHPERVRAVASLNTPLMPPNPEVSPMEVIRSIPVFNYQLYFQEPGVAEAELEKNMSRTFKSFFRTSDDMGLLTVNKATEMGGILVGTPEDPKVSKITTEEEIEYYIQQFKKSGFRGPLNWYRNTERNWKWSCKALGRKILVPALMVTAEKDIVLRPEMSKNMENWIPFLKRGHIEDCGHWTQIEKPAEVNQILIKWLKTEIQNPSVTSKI

[4] = Metabolic stability in rat liver microsomes assessed as half life; format: ADME, Microsome
[5] = biological target: T1, Bifunctional epoxide hydrolase 2; test: Inhibition of soluble EH in human HepG2 cells by cellular assay; format: cell-based
[6] = Plasma concentration in Sprague-Dawley rat at 5 mg/kg, po after 1 hr; format: ADME, organism-based; parameters: dose 5 mg/kg, route oral

| Compound | half-life [1] [h] | IC50 [2] [nM] | IC50 [3] [nM] | half-life [4] [h] | IC50 [5] [nM] | concentration at 1 h [6] [nM] |
| --- | --- | --- | --- | --- | --- | --- |
| O=C(NCCC(c1ccccc1)c1ccccc1)c1ccc(=O)[nH]c1 | 1.6 | 8.1 | 10 | 0.117 |  |  |
| O=C(NCc1ccccc1OC(F)(F)F)c1ccc(OCC(F)(F)F)nc1 | 1.3 |  | 6 | 0.117 |  |  |
| CS(=O)(=O)c1ccc(CNC(=O)c2ccc(OCC(F)(F)F)nc2)c(Cl)c1 | 1.6 | 15 | 16 | 1.25 | 28 |  |
| O=C(NCc1ccc(Br)cc1OC(F)(F)F)c1ccc(OCC(F)(F)F)nc1 | 5 | 12 | 7 | 0.283 | 0.1 |  |
| O=C(NCc1ccc(Cl)cc1Cl)c1ccc(=O)[nH]c1 | 1.3 | 400 | 330 | 3.18 |  |  |
| CS(=O)(=O)c1ccccc1CNC(=O)c1ccc(OCCC(F)(F)F)nc1 |  | 270 |  |  |  |  |
| O=C(NCc1ccc(Cl)cc1Cl)c1ccc(OCC(F)(F)F)nc1 | 2.97 | 6.6 | 7.3 | 0.117 | 18 | 2500 |
| O=C(NCc1ccccc1)c1ccc(OCCC(F)(F)F)nc1 |  | 1200 |  |  |  |  |
| CNS(=O)(=O)c1ccc(CNC(=O)c2ccc(OCC(F)(F)F)nc2)c(Cl)c1 | 1.35 | 14 | 19 | 0.417 | 31 |  |
| O=C(NCc1ccc(Cl)cc1)c1ccc(OCCC(F)(F)F)nc1 |  |  | 7 |  |  |  |
| O=C(NCc1ccc(Cl)cc1Cl)c1ccc(CCN2CCCC2)nc1 |  | 1500 |  |  |  |  |
| CCOCCn1cc(C(=O)NCc2ccc(Cl)cc2Cl)ccc1=O | 0.4 | 16 | 6 | 0.317 |  |  |
| CS(=O)(=O)c1cc(Cl)ccc1CNC(=O)c1ccc(OCC(F)(F)F)nc1 | 5 |  | 11 | 1.65 |  |  |
| O=C(NCCC(c1ccccc1)c1ccccc1)c1ccc(OCC(F)(F)F)nc1 | 0.633 | 5.4 | 7.8 | < 0.05 |  |  |
| CCOCCn1cc(C(=O)NCCC(c2ccccc2)c2ccccc2)ccc1=O | 0.0667 |  | 4 | 0.0833 |  |  |
| N#Cc1ccc(CNC(=O)c2ccc(OCC(F)(F)F)nc2)c(Cl)c1 | 3.13 | 14 |  | 1.75 | 12 |  |
| O=C(NCCC(c1ccccc1)c1ccccc1)c1ccc(CCN2CCCC2)nc1 | 0.767 | 18 | 9 | 0.683 |  |  |
| O=C(NC1CCOCC1)C1CCN(C(=O)NCc2ccc(Cl)cc2Cl)CC1 | 5 |  |  | 1.73 |  |  |
| Nc1ccc(C(=O)NCCC(c2ccccc2)c2ccccc2)cn1 | 0.55 |  | 8.5 | 0.0833 |  |  |
| CS(=O)(=O)c1ccc(CNC(=O)c2ccc(OCCC(F)(F)F)nc2)cc1 | 2.6 | 110 | 25 | 2.88 |  |  |
| Nc1ccc(C(=O)NCc2ccc(Cl)cc2Cl)cn1 | 0.767 |  | 430 | 0.733 |  |  |
| CS(=O)(=O)c1ccc(-c2ccc(CNC(=O)c3ccc(OCCC(F)(F)F)nc3)cc2)cc1 |  | 12 | 4.3 |  | 24 |  |
